Earlier results in patent publication US6071508A, “Preparation of formulations for electrotransport drug delivery” (Alza Corporation, priority 1997, dated 2000).
Counter-ions that a name gives are not always drawn.

Details: known value

c1ccc2c(c1)CC[C@H](CNCCCNC1=NCCCN1)O2 [drug salt of Example 1, (-)-(R)-N-[(3,4-dihydro-2H-1-benzopyran-2-yl)methyl]-N'-(1,4,5,6-tetrahydropyrimidinyl)-1,3-propanediamine dihydrochloride]
pKa, pyrimidinamine functionality: > 11.0 | pKa, secondary amine group: 8.3
